# Measured values reported in US7795226B2, “Control of radiation injury” (Biotempt B.V., priority 2006, dated 2010).
# “And” between values parts separate entries of the source, which are not always exact repeats. Equal entries are not always repeated.
# Experiments:
# Type in all cases: in vivo
# [1] = tested on: LPS-induced septic shock in mice; assay: comparative trial MTR and AQGV from two sources, LPS sickness scores; set-up: key to Sickness Score, individual mouse: 0: No abnormalities.; 1: Percolated fur, but no detectable behavior differences compared to normal mice.; 2: Percolated fur, huddle reflex, responds to stimuli (such as tap on cage), just as active during handling as healthy mouse.; 3: Slower response to tap on cage, passive or docile when handled, but still curious when alone in a new setting.; 4: Lack of curiosity, little or no response to stimuli, quite immobile.; 5: Labored breathing, inability or slow to self-right after being rolled onto back (moribund, sacrificed).; Dead; conditions: LPS 10-11 mg/kg; for Survival %: group of six
# Source text: Mice were scored for sickness severity using the following measurement scheme: • 0 No abnormalities. • 1 Percolated fur, but no detectable behavior differences compared to normal mice. • 2 Percolated fur, huddle reflex, responds to stimuli (such as tap on cage), just as active during handling as healthy mouse. • 3 Slower response to tap on cage, passive or docile when handled, but still curious when alone in a new setting. • 4 Lack of curiosity, little or no response to stimuli, quite immobile. • 5 Labored breathing, inability or slow to self-right after being rolled onto back (moribund, sacrificed). • D Dead.
# A comparative trial was set up to compare peptide MTR and AQGV (SEQ ID NO:120), each obtained from two commercial sources. The comparative trial comprised six groups of six animals; two groups (1A and 1B) receiving placebo (PBS), one group ([…]), one group (3) receiving peptide MTR (source Ansynth), one group (4) receiving peptide AQGV (SEQ ID NO:120) (source Pepscan) and one group (5) receiving peptide AQGV (SEQ ID NO:120) (source Ansynth). Peptide/placebo in these groups was administered two hours after LPS. LPS (source) was used at 10 to 11 mg/kg. Sickness scores were done at 0, 2, 22, 26, 42, and 48 hours after LPS injection.
# Comparative trial MTR and AQGV (SEO ID NO:120), each derived from two sources, all at 5 mg/kg.
# [2] = tested on: BALB/c mice exposed whole body to 10 Gy 137Cs-γ-irradiation; assay: Whole body γ-irradiation (10 Gy), peptide 1.5 hours after irradiation; conditions: 10 mg/kg i.p. 1.5 hours after 10 Gy; for Watery eyes / Weight loss: affected/total; for Mortality: dead/total
# Protocol: (§1) In the first experiment, 12-week-old female BALB/c mice were treated intraperitoneally with a single injection of either PBS (n=9) or with a peptide (LQGV (SEQ ID NO:117), VLPALP (SEQ ID NO:140), LPGCPRGVNPVVS (SEQ ID NO:114), MTRVLQGVLPALPQVVC (SEQ ID NO:113); n=8, 10 mg/kg). One and a half hours after the treatment, mice were exposed whole body to a single dose of 10 Gy ^137Cs-γ-irradiation. In the second experiment, 12-week-old female BALB/c mice were first exposed whole body to a single dose of 10 Gy ^137Cs-γ-irradiation and then 1.5 hours after the irradiation treated intraperitoneally with a single injection of either PBS (n=9) or with a peptide (n=8 or 9, 10 mg/kg).
# [3] = tested on: BALB/c mice exposed whole body to 10 Gy 137Cs-γ-irradiation; assay: Whole body γ-irradiation (10 Gy), peptide 1.5 hours before irradiation; conditions: 10 mg/kg i.p. 1.5 hours before 10 Gy; for Watery eyes / Weight loss: affected/total; for Mortality: dead/total
# Protocol: as §1
# [4] = 0 hours (LPS treatment), peptide from Ansynth (#Ansynth 12, #Ansynth 46) 5 mg/kg
# [5] = 0 hours (LPS treatment), peptide from Diosynth BV (#970, #971) 5 mg/kg
# [6] = 2 hours (compound treatment), peptide from Ansynth (#Ansynth 12, #Ansynth 46) 5 mg/kg
# [7] = 2 hours (compound treatment), peptide from Diosynth BV (#970, #971) 5 mg/kg
# [8] = 22 hours, peptide from Ansynth (#Ansynth 12, #Ansynth 46) 5 mg/kg
# [9] = 22 hours, peptide from Diosynth BV (#970, #971) 5 mg/kg
# [10] = 26 hours, peptide from Ansynth (#Ansynth 12, #Ansynth 46) 5 mg/kg
# [11] = 26 hours, peptide from Diosynth BV (#970, #971) 5 mg/kg
# [12] = 42 hours, peptide from Ansynth (#Ansynth 12, #Ansynth 46) 5 mg/kg
# [13] = 42 hours, peptide from Diosynth BV (#970, #971) 5 mg/kg
# [14] = 48 hours, peptide from Ansynth (#Ansynth 12, #Ansynth 46) 5 mg/kg
# [15] = 48 hours, peptide from Diosynth BV (#970, #971) 5 mg/kg
# [16] = peptide from Ansynth (#Ansynth 12, #Ansynth 46) 5 mg/kg
# [17] = peptide from Diosynth BV (#970, #971) 5 mg/kg
Substance,"Sickness Score, individual mouse [1, 4]","Sickness Score, individual mouse [1, 5]","Sickness Score, individual mouse [1, 6]","Sickness Score, individual mouse [1, 7]","Sickness Score, individual mouse [1, 8]","Sickness Score, individual mouse [1, 9]","Sickness Score, individual mouse [1, 10]","Sickness Score, individual mouse [1, 11]","Sickness Score, individual mouse [1, 12]","Sickness Score, individual mouse [1, 13]","Sickness Score, individual mouse [1, 14]","Sickness Score, individual mouse [1, 15]","Survival % [1, 16]","Survival % [1, 17]",Watery eyes ([2]; day 0 after irradiation),Weight loss ([2]; day 0 after irradiation),Mortality ([2]; day 0 after irradiation),Mortality ([2]; day 3 after irradiation),Watery eyes ([2]; day 4 after irradiation),Weight loss ([2]; day 4 after irradiation),other results
AQGV,0,0,2,2,3 (2×) and 2 (3×) and 4,2 (4×) and 3 and 4,3 (2×) and 2 (3×) and 4,2 (3×) and 3 (2×) and 5,2 and 3 and 1 (3×) and 5,2 (5×) and dead,1 (5×) and dead,2 (3×) and 1 (2×),83%,83%,–,–,–,–,–,–,–
LQGV,–,–,–,–,–,–,–,–,–,–,–,–,–,–,0/9,0/9,0/9,0/9,3/9,9/9,Mortality ([2]; day 4 after irradiation): 0/9; Mortality ([2]; day 5 after irradiation): 1/9; Mortality ([2]; day 6 after irradiation): 6/9; Mortality ([2]; day 7 after irradiation): 9/9; Watery eyes ([3]; day 0 after irradiation): 0/8; Weight loss ([3]; day 0 after irradiation): 0/8; Mortality ([3]; day 0 after irradiation): 0/8; Mortality ([3]; day 3 after irradiation): 0/8; Watery eyes ([3]; day 4 after irradiation): 0/8; Weight loss ([3]; day 4 after irradiation): 8/8; Mortality ([3]; day 4 after irradiation): 0/8; Mortality ([3]; day 5 after irradiation): 0/8; Mortality ([3]; day 6 after irradiation): 7/8; Mortality ([3]; day 7 after irradiation): 8/8
MTR,0,0,2,2,2 (4×) and 4 and 3,dead and 3 and 2 (3×) and 4,1 and 2 (2×) and 5 and 4 and 3,3 and 2 (3×) and 5,1 and 2 (2×) and dead and 4 and 5,5 and 2 (2×) and 4 and dead,1 (2×) and dead (2×) and 2,dead (2×) and 2 (2×),50%,33%,–,–,–,–,–,–,–
VLPALP (hexamer peptide),–,–,–,–,–,–,–,–,–,–,–,–,–,–,0/9,0/9,0/9,0/9,0/9,9/9,Mortality ([2]; day 4 after irradiation): 0/9; Mortality ([2]; day 5 after irradiation): 0/9; Mortality ([2]; day 6 after irradiation): 3/9; Mortality ([2]; day 7 after irradiation): 9/9; Watery eyes ([3]; day 0 after irradiation): 0/8; Weight loss ([3]; day 0 after irradiation): 0/8; Mortality ([3]; day 0 after irradiation): 0/8; Mortality ([3]; day 3 after irradiation): 0/8; Watery eyes ([3]; day 4 after irradiation): 0/8; Weight loss ([3]; day 4 after irradiation): 8/8; Mortality ([3]; day 4 after irradiation): 0/8; Mortality ([3]; day 5 after irradiation): 0/8; Mortality ([3]; day 6 after irradiation): 7/8; Mortality ([3]; day 7 after irradiation): 8/8
